Measured values taken from patent US11491089B2, “Reloadable microcapsules” (International Flavors & Fragrances Inc., priority 2016, dated 2022).

Test: Hansen solubility parameters of the core solvents
Assay type: physicochemical
Description: The term “Hansen solubility parameter” refers to a solubility parameter approach proposed by Charles Hansen used to predict polymer solubility and was developed around the basis that the total energy of vaporization of a liquid consists of several individual parts. To calculate the “weighted Hansen solubility parameter” one must combine the effects of (atomic) dispersion forces, (molecular) permanent dipole-permanent dipole forces, and (molecular) hydrogen bonding (electron exchange). The “weighted Hansen solubility parameter” is calculated as (δD^2+δP^2+δH^2)^0.5, wherein δD is the Hansen dispersion value, δP is the Hansen polarizability value, and δH is the Hansen Hydrogen-bonding (“h-bonding”) value.

Compound | δD (Hansen dispersion value) | δH (Hansen h-bonding value) | δP (Hansen polar (dipole-dipole) value)
CCCCCCCCCCCCCC(=O)OC(C)C [isopropyl myristate] | 16 | 2.7 | 2.1
CC(=O)OCC(COC(C)=O)OC(C)=O [triacetin] | 16.4 | 9.6 | 5.7
